According to BindingDB's records for patent US12552811 (Abbisko Therapeutics Co., 2026):

Molecular target: Programmed cell death 1 ligand/protein 1 (Homo sapiens, UniProt Q15116+Q9NZQ7)
Assay: PD1-PDL1 HTRF Binding Activity Assay
Experimental: 1) Pre-diluted compound solution, 4 μL of Tag1-PD-L1 and 4 μL of Tag2-PD1 were added to each well of a 384-well plate:2) After the mixture was incubated at room temperature for 15 min, 5 μL of anti-Tag1-Eu3+ antibody and 5 μL of anti-Tag2-XL665 antibody were then added;3) After incubated for 2 hrs at room temperature or overnight at 4° C., plates were read on Envision of Pelkin Elmer; and readings at 665 nm and 620 nm were recorded, and the ratio of the two readings was taken as a reading for each well;4) The reading of each well after compound treatment was compared with the reading of DMSO treated wells to obtain the percent inhibition of the compound;5) IC50 values of compounds and positive compounds of the examples of the present invention were determined by non-linear regression analysis of percent inhibition at different compound concentrations.

Chain of Programmed cell death 1 ligand/protein 1 (Q9NZQ7 whole entry): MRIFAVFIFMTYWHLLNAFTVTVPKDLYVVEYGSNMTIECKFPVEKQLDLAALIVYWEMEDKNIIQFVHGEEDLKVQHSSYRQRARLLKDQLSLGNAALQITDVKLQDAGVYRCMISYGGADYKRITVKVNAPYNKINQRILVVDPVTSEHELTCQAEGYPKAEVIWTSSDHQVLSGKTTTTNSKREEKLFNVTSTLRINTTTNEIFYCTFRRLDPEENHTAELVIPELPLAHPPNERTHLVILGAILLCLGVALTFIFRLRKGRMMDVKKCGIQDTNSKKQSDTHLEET
Chain of Programmed cell death 1 ligand/protein 1 (Q15116 whole entry): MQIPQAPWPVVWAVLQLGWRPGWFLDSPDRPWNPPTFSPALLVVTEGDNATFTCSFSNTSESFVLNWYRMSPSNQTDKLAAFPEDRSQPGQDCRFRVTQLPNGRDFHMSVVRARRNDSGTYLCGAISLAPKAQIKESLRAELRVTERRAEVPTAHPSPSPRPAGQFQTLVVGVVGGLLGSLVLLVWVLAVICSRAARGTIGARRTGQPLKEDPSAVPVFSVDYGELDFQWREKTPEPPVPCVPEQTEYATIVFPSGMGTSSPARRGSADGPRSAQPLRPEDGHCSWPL

CC(C)N1CCc2cc(C(=O)Nc3cccc(-c4cccc(NC(=O)c5cc(C6CC6)c(CN6CCCC[C@H]6C(=O)O)cn5)c4Cl)c3Cl)ncc2C1 [US12552811, Example 32]
IC50: 0.661 nM
